{
  "source": "patent US8343539B2",
  "about": "“Compounds that bind α5β1 integrin and methods of use” (Regents of the University of Minnesota, priority 2006, dated 2013)",
  "key": {"HUVECs": {"tested_on": "HUVECs", "experiment": "HUVEC adhesion on LB membranes of peptide-amphiphiles (Example 1)", "type": "cell-based, human", "details": "no serum; for HUVEC adhesion compared to FN: seeded 497 cells/mm^2", "description": "Surface preparation: Peptide-amphiphiles, listed in Table 1, were synthesized as described in the literature (Berndt et al., J. Am. Chem. Soc., 1995; 117:9515-9522). Langmuir-Blodgett (LB) membranes constructed from peptide-amphiphiles were deposited onto 15 mm mica disks as described elsewhere (Kokkoli et al., Langmuir, 2004; 20:2397-2404). Shortly before cell assays, the LB films were transferred into 24-well plates containing 1× phosphate buffered saline (PBS) solution (Mediatech), without exposing surfaces to air, as they rearrange to form multilayers (Hansma et al., Method. Cell Biol., 2002; 69:163-193). After equilibrating for 5-10 minutes, PBS was exchanged with 1 ml of MCDB-131 basal media (Sigma) supplemented with 0.1% bovine serum albumin (BSA) (Sigma) and antibiotics (Sigma) (2.5 μg/ml gentamicin, 2.5 μg/ml amphotericin B, 50 U/ml penicillin, and 50 μg/ml streptomycin), referred to as 0.1% BSA media. Surfaces were equilibrated at 37° C., 5% CO2 for 30-60 minutes before adding the cells. Human fibronectin-coated round coverslips (FN) 22 mm in diameter (BD Biosciences) were put into 12-well plates and 2 ml of 0.1% BSA media was added to each well. Surfaces were equilibrated for 30-60 minutes at 37° C., 5% CO2.\nCell culture: Human umbilical vein endothelial cells, HUVECs, (Cambrex Corporation) were cultured in MCDB-131 containing 20% fetal bovine serum (FBS) (Atlas Biologicals) at 37° C., 5% CO2. Other nutrients and antibiotics supplementing the media were added based on an optimal HUVEC proliferation study (Terramani et al., In Vitro Cell Dev. Biol.—Animal, 2000; 36:125-132). Media was changed in the culture flasks every other day. Cells used for adhesion and imaging studies were in passages 3-4.\nCell adhesion experiments: After cells became 90% confluent they were washed with PBS, trypsinized with 0.25% Trypsin-EDTA (Cambrex Corporation), neutralized with MCDB-131 with 2% FBS, and spun at 1000 rpm for 10 minutes. The supernatant was removed and the cell pellet was resuspended in 0.1% BSA media. Cells were counted with a hemocytometer and seeded onto LB and FN surfaces at a density of 497 cells/mm^2. Surfaces were incubated with cells in 0.1% BSA media at 37° C., 5% CO2, for 1, 4, 12, 24, 48, and 72 hours. Cell adhesion was quantified using the CyQuant Cell Proliferation Assay Kit, with a dye that binds to cellular nucleic acids, following the manufacturer's protocol (Molecular Probes). A calibration standard curve was created for each experiment. The plates were read on a SpectraMAX GeminiXS (Molecular Devices)."}, "integrin α5β1": {"molecular_target": "T1, integrin α5β1 (Homo sapiens, UniProt P05556+P08648)", "T1 construct": "endogenous in cells; host or cells: HUVEC (human umbilical vein endothelial cells)", "T1 sequence (P08648 42-894 limits assumed)": "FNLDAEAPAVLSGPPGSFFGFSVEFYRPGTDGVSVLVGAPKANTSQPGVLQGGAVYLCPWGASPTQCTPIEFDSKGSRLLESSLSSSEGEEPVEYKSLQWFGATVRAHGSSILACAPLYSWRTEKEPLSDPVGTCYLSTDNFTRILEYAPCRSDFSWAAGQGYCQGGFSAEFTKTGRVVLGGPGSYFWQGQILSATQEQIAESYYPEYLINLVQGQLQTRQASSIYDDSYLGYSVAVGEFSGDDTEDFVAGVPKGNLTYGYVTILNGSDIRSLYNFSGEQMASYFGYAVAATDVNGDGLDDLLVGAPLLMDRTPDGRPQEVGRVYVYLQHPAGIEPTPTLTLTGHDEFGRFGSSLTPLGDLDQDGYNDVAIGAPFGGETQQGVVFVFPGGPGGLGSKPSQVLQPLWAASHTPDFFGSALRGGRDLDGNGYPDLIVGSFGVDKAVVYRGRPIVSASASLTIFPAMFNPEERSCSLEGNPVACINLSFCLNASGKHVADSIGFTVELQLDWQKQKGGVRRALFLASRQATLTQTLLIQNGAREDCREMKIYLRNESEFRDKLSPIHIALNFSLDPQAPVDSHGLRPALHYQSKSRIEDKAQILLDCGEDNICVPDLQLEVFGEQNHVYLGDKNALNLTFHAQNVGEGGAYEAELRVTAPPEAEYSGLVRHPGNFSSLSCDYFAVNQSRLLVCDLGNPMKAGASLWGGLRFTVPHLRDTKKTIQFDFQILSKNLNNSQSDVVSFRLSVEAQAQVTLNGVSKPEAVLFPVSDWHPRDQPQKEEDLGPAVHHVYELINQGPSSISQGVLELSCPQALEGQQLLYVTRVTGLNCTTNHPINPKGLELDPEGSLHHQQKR", "T1 sequence (P08648 895-1049 partner limits assumed)": "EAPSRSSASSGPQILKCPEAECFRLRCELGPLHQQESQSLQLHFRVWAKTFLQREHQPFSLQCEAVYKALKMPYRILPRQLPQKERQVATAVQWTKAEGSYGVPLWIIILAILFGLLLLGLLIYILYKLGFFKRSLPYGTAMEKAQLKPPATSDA", "T1 sequence (P05556 21-798)": "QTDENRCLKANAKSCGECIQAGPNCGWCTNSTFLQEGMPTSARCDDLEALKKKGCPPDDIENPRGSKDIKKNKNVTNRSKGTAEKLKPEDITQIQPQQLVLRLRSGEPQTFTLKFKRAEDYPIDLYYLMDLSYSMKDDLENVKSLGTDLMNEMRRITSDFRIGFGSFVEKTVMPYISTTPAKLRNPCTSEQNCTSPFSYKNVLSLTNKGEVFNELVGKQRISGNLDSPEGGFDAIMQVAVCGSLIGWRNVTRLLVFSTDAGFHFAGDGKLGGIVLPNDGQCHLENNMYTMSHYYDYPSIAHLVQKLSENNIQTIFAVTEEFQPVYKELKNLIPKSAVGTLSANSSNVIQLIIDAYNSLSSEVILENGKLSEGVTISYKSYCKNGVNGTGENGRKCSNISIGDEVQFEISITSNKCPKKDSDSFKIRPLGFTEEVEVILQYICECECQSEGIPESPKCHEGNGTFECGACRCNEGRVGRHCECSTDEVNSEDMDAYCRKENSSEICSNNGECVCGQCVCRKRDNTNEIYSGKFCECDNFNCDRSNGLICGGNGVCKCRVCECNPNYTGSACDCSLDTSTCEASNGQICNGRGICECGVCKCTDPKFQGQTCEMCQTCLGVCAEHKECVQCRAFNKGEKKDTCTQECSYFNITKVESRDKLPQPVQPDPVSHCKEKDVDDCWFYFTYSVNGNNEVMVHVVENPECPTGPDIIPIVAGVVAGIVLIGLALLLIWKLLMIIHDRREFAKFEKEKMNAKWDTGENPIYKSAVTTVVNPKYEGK", "experiment": "Adhesion blocking with anti-integrin α5β1 antibody (JBS5)", "type": "cell-based", "details": "1 hour", "protocol": "Adhesion blocking experiments: Blocking experiments were done using mouse anti-human integrin […] (P1D6), β1 (P5D2), α5β1 (JBS5), and αvβ3 (LM609) monoclonal antibodies (Chemicon Int.). All surfaces were transferred to 24- or 12-well plates and pre-incubated in 0.1% BSA media as described above. HUVECs were prepared and counted as described in the cell adhesion protocol. Cells were blocked by mixing the cell suspension with the appropriate antibody in 0.1% BSA media, and incubating for 30 minutes at 37° C., 5% CO2 with constant agitation. Blocked cells were then released onto LB and FN surfaces and allowed to adhere for 1 hour at 37° C., 5% CO2. For all blocking experiments, cells were seeded at 249 cells/mm^2 (lower seeding density was used here to reduce the amount of antibodies needed to block cell adhesion) and a final antibody concentration in each well was 20 μg/ml. Following incubation, surfaces were washed, and adhered cells were quantified as described in the cell adhesion protocol."}},
  "note": "Entries after “also recorded” stand apart in the source; their conditions may differ. Where no end group is shown, it is not given here. (C16)2 = not defined here",
  "data": [
    {"substance": "(C16)2-Glu-C2-KSSPHSRNSGSGSGSGSGRGDSP ({(C16)2-Glu-C2}-KSSPHSRNSGSGSGSGSGRGDSP; not fully specified; reading uncertain) [PR_b]", "values": [
      {"measurement": "HUVEC adhesion compared to FN", "setting": "HUVECs; 1-24 hours", "result": "higher adhesion than FN"},
      {"measurement": "Ability of substrate to sustain HUVEC adhesion over time", "setting": "HUVECs; 1-72 hours", "result": "effectively adhered"},
      {"measurement": "HUVEC adhesion compared to the other peptide surfaces", "setting": "HUVECs; 1-72 hours", "result": "most promising sequence; also recorded: outperformed all other peptide substrates; also recorded: outperforms all other peptide surfaces"},
      {"measurement": "HUVEC adhesion compared to FN", "setting": "HUVECs; 48-72 hours", "result": "similar; also recorded: equivalent"},
      {"measurement": "reduction in cell adhesion compared to adhesion of non-blocked cells", "setting": "integrin α5β1; anti-α5β1 antibody 20 μg/ml, HUVECs 249 cells/mm^2", "result": "77.55±1.50", "unit": "%"},
      {"measurement": "Integrin mediating HUVEC adhesion to the surface", "setting": "integrin α5β1; antibody blocking", "result": "α5β1-mediated; also recorded: specific for α5β1 integrins"}
    ]}
  ]
}
